The results in this text go back to patent publication US12145913B2, “Inhibition of Olig2 activity” (Curtana Pharmaceuticals, Inc., priority 2016, dated 2024).

For this experiment, the system named is GBM8 human glioblastoma cells. Kind of experiment: GBM8 viability assay (Cell Titer Glo). Type of experiment: cell-based. As to conditions: 72 h, Table 1, 3 days incubation, luminescence. The procedure: Cell culture medium was prepared from a NSA proliferation kit (Neurocult) and NeuroCult supplements (Stemcell Tech Cat. #05751) and treated with 20 μL of 10 μg/mL rh EGF, 10 μL of 10 μg/mL rh bFGF and 10 μL of 0.2% Heparin. In this medium, human glioblastoma cells were cultured in ultra-low attachment tissue culture flasks until 1×10^6 cells ml was achieved (GBM4 and GBM8 are distinct neurosphere cell cultures derived from these human patient tissues). GBM4 and GBM8 cells were dissociated and 10 mL of media containing 4000 human glioblastoma cells per 90 μL were transferred to an ultra-low binding 96-well plate and incubated at 37° C. overnight. On the following day, 10 μL of a 1% DMSO solution of test compound in assay medium was added to wells containing the cell suspension and the mixture incubated at 37° C. for 3 days. At this time, the plate was removed from the incubator and allowed to reach room temperature. After about 30 minutes, 50 μL of Cell Titer Glo solution was added to each well and the plate shaken for 1 minute at low speed. After 10 minutes luminescence was recorded using a Tecan Safire2 reader.
Reduction in luminescence compared to DMSO only control wells was used to determine the percentage inhibition of cell growth. IC50s were calculated using the % inhibition of luminescence for serial dilutions of compounds fitted to a 4-parameter fit within the Prism (San Diego) curve fitting program. Tables 1 (compounds 3-188) and 2 (compounds 190-212) show the GBM4 IC50 and GBM8 IC50 for compounds described herein.
`Cc1cc(NCCN(C)C)nc(NC(=O)Nc2ccc3occc3c2)n1` [Compound 81, 1-(benzofuran-5-yl)-3-(4-((2-(dimethylamino)ethyl)amino)-6-methylpyrimidin-2-yl)urea] came in with an IC50 of under 0.5 µM. `Cc1cc(NCCN)nc(NC(=O)Nc2ccc3occc3c2)n1` [Compound 82, 1-(4-((2-aminoethyl)amino)-6-methylpyrimidin-2-yl)-3-(benzofuran-5-yl)urea] returned an IC50 of under 0.5 µM. Consider `Cc1cc(NCCCN)nc(NC(=O)Nc2ccc3occc3c2)n1` [Compound 83, 1-(4-((3-aminopropyl)amino)-6-methylpyrimidin-2-yl)-3-(benzofuran-5-yl)urea], for which the IC50 was under 0.5 µM. `CC(=O)NCCNc1cc(C)nc(NC(=O)Nc2ccc3occc3c2)n1` [Compound 84, N-(2-((2-(3-(benzofuran-5-yl)ureido)-6-methylpyrimidin-4-yl)amino)ethyl)acetamide] had an IC50 of under 0.5 µM.

`CC(=O)NCCCNc1cc(C)nc(NC(=O)Nc2ccc3occc3c2)n1` [Compound 85, N-(3-((2-(3-(benzofuran-5-yl)ureido)-6-methylpyrimidin-4-yl)amino)propyl)acetamide] registered a half-maximal inhibitory concentration (IC50) of under 0.5 µM. The same measure for `Cc1cc(NCCNS(C)(=O)=O)nc(NC(=O)Nc2ccc3occc3c2)n1` [Compound 86, N-(2-((2-(3-(benzofuran-5-yl)ureido)-6-methylpyrimidin-4-yl)amino)ethyl)methanesulfonamide]: under 0.5 µM. The same measure for `Cc1cc(NCCCN(C)C)nc(NC(=O)Nc2cc3ccccc3cn2)n1` [Compound 89, 1-(4-((3-(dimethylamino)propyl)amino)-6-methylpyrimidin-2-yl)-3-(isoquinolin-3-yl)urea]: 5 to 30 µM; for `Cc1cc(NCCN)nc(NC(=O)Nc2cc3ccccc3cn2)n1` [Compound 90, 1-(4-((2-aminoethyl)amino)-6-methylpyrimidin-2-yl)-3-(isoquinolin-3-yl)urea]: 0.5 to 5 µM.

As to `Cc1cc(NCCCN)nc(NC(=O)Nc2cc3ccccc3cn2)n1` [Compound 91, 1-(4-((3-aminopropyl)amino)-6-methylpyrimidin-2-yl)-3-(isoquinolin-3-yl)urea], the IC50 is 0.5 to 5 µM. `CC(=O)NCCCNc1cc(C)nc(NC(=O)Nc2cc3ccccc3cn2)n1` [Compound 92, N-(3-((2-(3-(isoquinolin-3-yl)ureido)-6-methylpyrimidin-4-yl)amino)propyl)acetamide] displayed an IC50 of 0.5 to 5 µM. The same measure for `Cc1cc(NCCNS(C)(=O)=O)nc(NC(=O)Nc2cc3ccccc3cn2)n1` [Compound 93, N-(2-((2-(3-(isoquinolin-3-yl)ureido)-6-methylpyrimidin-4-yl)amino)ethyl)methanesulfonamide]: 0.5 to 5 µM; for `Cc1cc(NCCCN(C)C)nc(NC(=O)Nc2ccc3ccccc3n2)n1` [Compound 96, 1-(4-((3-(dimethylamino)propyl)amino)-6-methylpyrimidin-2-yl)-3-(quinolin-2-yl)urea]: 0.5 to 5 µM. Compound `Cc1cc(NCCN(C)C)nc(NC(=O)Nc2ccc3ccccc3n2)n1` [Compound 97, 1-(4-((2-(dimethylamino)ethyl)amino)-6-methylpyrimidin-2-yl)-3-(quinolin-2-yl)urea] showed an IC50 of 5 to 30 µM. Compound `Cc1cc(NCCN)nc(NC(=O)Nc2ccc3ccccc3n2)n1` [Compound 98, 1-(4-((2-aminoethyl)amino)-6-methylpyrimidin-2-yl)-3-(quinolin-2-yl)urea] yielded an IC50 of 0.5 to 5 µM.

`Cc1cc(NCCCN)nc(NC(=O)Nc2ccc3ccccc3n2)n1` [Compound 99, 1-(4-((3-aminopropyl)amino)-6-methylpyrimidin-2-yl)-3-(quinolin-2-yl)urea] registered an IC50 of 0.5 to 5 µM. `CC(=O)NCCCNc1cc(C)nc(NC(=O)Nc2ccc3ccccc3n2)n1` [Compound 100, N-(3-((6-methyl-2-(3-(quinolin-2-yl)ureido)pyrimidin-4-yl)amino)propyl)acetamide] yielded an IC50 of 0.5 to 5 µM. The same measure for `CC(=O)NCCNc1cc(C)nc(NC(=O)Nc2ccc3ccccc3n2)n1` [Compound 101, N-(2-((6-methyl-2-(3-(quinolin-2-yl)ureido)pyrimidin-4-yl)amino)ethyl)acetamide]: 0.5 to 5 µM; for `Cc1cc(NCCNS(C)(=O)=O)nc(NC(=O)Nc2ccc3ccccc3n2)n1` [Compound 102, N-(2-((6-methyl-2-(3-(quinolin-2-yl)ureido)pyrimidin-4-yl)amino)ethyl)methanesulfonamide]: 0.5 to 5 µM; for `Cc1cc(NCCCN(C)C)nc(NC(=O)Nc2ccc3ncccc3c2)n1` [Compound 105, 1-(4-((3-(dimethylamino)propyl)amino)-6-methylpyrimidin-2-yl)-3-(quinolin-6-yl)urea]: 0.5 to 5 µM.

For `Cc1cc(NCCN(C)C)nc(NC(=O)Nc2ccc3ncccc3c2)n1` [Compound 106, 1-(4-((2-(dimethylamino)ethyl)amino)-6-methylpyrimidin-2-yl)-3-(quinolin-6-yl)urea], the IC50 lay in the range of 0.5 to 5 µM. Take `Cc1cc(NCCN)nc(NC(=O)Nc2ccc3ncccc3c2)n1` [Compound 107, 1-(4-((2-aminoethyl)amino)-6-methylpyrimidin-2-yl)-3-(quinolin-6-yl)urea]: the IC50 was in the range of 0.5 to 5 µM. `Cc1cc(NCCCN)nc(NC(=O)Nc2ccc3ncccc3c2)n1` [Compound 108, 1-(4-((3-aminopropyl)amino)-6-methylpyrimidin-2-yl)-3-(quinolin-6-yl)urea] came in with an IC50 of 0.5 to 5 µM. As for `CC(=O)NCCCNc1cc(C)nc(NC(=O)Nc2ccc3ncccc3c2)n1` [Compound 109, N-(3-((6-methyl-2-(3-(quinolin-6-yl)ureido)pyrimidin-4-yl)amino)propyl)acetamide], the IC50 is 0.5 to 5 µM. The same measure for `CC(=O)NCCNc1cc(C)nc(NC(=O)Nc2ccc3ncccc3c2)n1` [Compound 110, N-(2-((6-methyl-2-(3-(quinolin-6-yl)ureido)pyrimidin-4-yl)amino)ethyl)acetamide]: 0.5 to 5 µM; for `Cc1cc(NCCNS(C)(=O)=O)nc(NC(=O)Nc2ccc3ncccc3c2)n1` [Compound 111, N-(2-((6-methyl-2-(3-(quinolin-6-yl)ureido)pyrimidin-4-yl)amino)ethyl)methanesulfonamide]: under 0.5 µM. The same measure for `Cc1cc(NCCCN(C)C)nc(NC(=O)Nc2ccc3ccncc3c2)n1` [Compound 114, 1-(4-((3-(dimethylamino)propyl)amino)-6-methylpyrimidin-2-yl)-3-(isoquinolin-7-yl)urea]: under 0.5 µM. Compound `Cc1cc(NCCN(C)C)nc(NC(=O)Nc2ccc3ccncc3c2)n1` [Compound 115, 1-(4-((2-(dimethylamino)ethyl)amino)-6-methylpyrimidin-2-yl)-3-(isoquinolin-7-yl)urea] returned an IC50 of 0.5 to 5 µM. With `Cc1cc(NCCN)nc(NC(=O)Nc2ccc3ccncc3c2)n1` [Compound 116, 1-(4-((2-aminoethyl)amino)-6-methylpyrimidin-2-yl)-3-(isoquinolin-7-yl)urea], the IC50 fell in the range of 0.5 to 5 µM. The compound `Cc1cc(NCCCN)nc(NC(=O)Nc2ccc3ccncc3c2)n1` [Compound 117, 1-(4-((3-aminopropyl)amino)-6-methylpyrimidin-2-yl)-3-(isoquinolin-7-yl)urea] yielded an IC50 of 0.5 to 5 µM. In turn, `CC(=O)NCCCNc1cc(C)nc(NC(=O)Nc2ccc3ccncc3c2)n1` [Compound 118, N-(3-((2-(3-(isoquinolin-7-yl)ureido)-6-methylpyrimidin-4-yl)amino)propyl)acetamide] gave an IC50 of under 0.5 µM. The compound `CC(=O)NCCNc1cc(C)nc(NC(=O)Nc2ccc3ccncc3c2)n1` [Compound 119, N-(2-((2-(3-(isoquinolin-7-yl)ureido)-6-methylpyrimidin-4-yl)amino)ethyl)acetamide] came in with a half-inhibitory concentration (IC50) of 0.5 to 5 µM. Compound `Cc1cc(NCCNS(C)(=O)=O)nc(NC(=O)Nc2ccc3ccncc3c2)n1` [Compound 120, N-(2-((2-(3-(isoquinolin-7-yl)ureido)-6-methylpyrimidin-4-yl)amino)ethyl)methanesulfonamide] yielded an IC50 of under 0.5 µM. Regarding `Cc1cc(NCCNS(C)(=O)=O)nc(NC(=O)Nc2ccc(Cl)c(Cl)c2)n1` [Compound 123, N-(2-((2-(3-(3,4-dichlorophenyl)ureido)-6-methylpyrimidin-4-yl)amino)ethyl)methanesulfonamide], the IC50 is under 0.5 µM. Consider `Cc1cc(NCCCN(C)C)nc(NC(=O)Nc2ccc(-c3ccccc3)cc2)n1` [Compound 125, 1-([1,1′-biphenyl]-4-yl)-3-(4-((3-(dimethylamino)propyl)amino)-6-methylpyrimidin-2-yl)urea], for which the IC50 was under 0.5 µM. `CCNc1cc(C)nc(NC(=O)Nc2ccc(-c3ccccc3)cc2)n1` [Compound 126, 1-([1,1′-biphenyl]-4-yl)-3-(4-(ethylamino)-6-methylpyrimidin-2-yl)urea]: the IC50 is under 0.5 µM. `Cc1cc(NCCCN(C)C)nc(NC(=O)Nc2cccc(Oc3ccccc3)c2)n1` [Compound 128, 1-(4-((3-(dimethylamino)propyl)amino)-6-methylpyrimidin-2-yl)-3-(3-phenoxyphenyl)urea] showed an IC50 of 0.5 to 5 µM.

In turn, `Cc1cc(NCCCN(C)C)nc(NC(=O)Nc2cccc(-c3ccccc3)c2)n1` [Compound 131, 1-([1,1′-biphenyl]-3-yl)-3-(4-((3-(dimethylamino)propyl)amino)-6-methylpyrimidin-2-yl)urea] showed an IC50 of 0.5 to 5 µM.
